In patent US5352804A, “Isolation and structure of Halistatin 2” (Arizona Board of Regents, a body corporate, acting on …, priority 1993, dated 1994):
Read-outs that look alike come from different tables or passages of the source.

Legend:
Test in all cases: NCI human tumor in vitro primary screen
Assay type in all cases: cell-based
LOX IMVI = details: melanoma
Description: (§1) Only two hundred years ago, many diseases ravaged humankind. Many of these diseases now have been controlled or eradicated. In the development of the means to treat or control these diseases, work with the appropriate common experimental animals was of critical importance. With the various types of cancers, and with the HIV virus, such work is presently ongoing. The research for the treatment of various types of cancer is coordinated in the United States by the National Cancer Institute (NCI). NCI, as a government entity, has been charged with assisting anti-cancer research. To establish whether a substance has anti cancer activity, NCI has established a variety of protocols, one of which involves testing the candidate substance against a cell line panel containing 60 human tumor cell lines. This protocol has been verified and is generally accepted throughout the scientific community. This protocol and the established statistical means of evaluating the results obtained therefrom have been fully described in the literature. See Principles & Practice of Oncology PPO Updates, Volume 3, Number 10, Oct. 1989, by Michael R. Boyd, M.D., Ph.D., for an indepth description of the test protocol. The statistical analysis is explained in "Display and Analysis of Patterns of Differential Activity of Drugs Against Human Tumor Cell Lines: Development of Means Graph and COMPARE Algorithm" Journal of the National Cancer Institute Reports Vol. 81, No. 14, Pg. 1088, Jul. 14, 1989, by K. D. Paull et al. Both of these references are incorporated herein by this reference thereto.
(§2) Biological Testing; Data Display and Analysis; Screening Data Summary. Freshly isolated halistatin 2 was tested in the NCI's human tumor, disease-oriented in vitro primary screen, and data calculations performed. Table 3 is a composite prepared from mean graphs constructed from the averaged GI50 values from quadruplicate screenings of Halistatin 2.

M14 = details: melanoma
Description: as §1, §2

NCI-H522 = tested on: NCI-H522
Description: as §1, §2

SF-295 = details: CNS cancer
Description: as §1, §2

NCI-H226 = tested on: NCI-H226
Description: as §1, §2

XF 498 = tested on: XF 498
Description: as §1, §2

NCI-H23 = tested on: NCI-H23
Description: as §1, §2

SF-268 = details: CNS cancer
Description: as §1, §2

A549/ATCC = details: non-small cell lung cancer
Description: as §1, §2

EKVX = details: non-small cell lung cancer
Description: as §1, §2

HOP-92 = details: non-small cell lung cancer
Description: as §1, §2

OVCAR-8 = details: ovarian cancer
Description: as §1, §2

HCC-2998 = details: colon cancer
Description: as §1, §2

KM 20L2 = tested on: KM 20L2
Description: as §1, §2

K-562 = details: K562, leukemia
Description: as §1, §2

SF-539 = details: CNS cancer
Description: as §1, §2

LXFL 529 = tested on: LXFL 529
Description: as §1, §2

CAKI-1 = tested on: CAKI-1
Description: as §1, §2

DLD-1 = details: colon cancer
Description: as §1, §2

M19-MEL = details: melanoma
Description: as §1, §2

SK-MEL-28 = details: melanoma
Description: as §1, §2

OVCAR-4 = details: ovarian cancer
Description: as §1, §2

TK-10 = details: renal cancer
Description: as §1, §2

[1] = read-out: Log10 GI50 (converted)
[2] = read-out: Log10 TGI (converted)
[3] = read-out: averaged negative log10 GI50 (converted)
[4] = non-small cell lung cancer, read-out: averaged negative log10 GI50 (converted)

In the case of `C=C1CC2CCC34CC5OC6C(O3)C3OC(CCC3OC6(O)C5O4)CC(=O)OC3C(CC4OC(CCC1O2)CC(C)C4=C)OC1CC2OC4(CC2OC1C3C)CC1OC2(CC(C)C3OC5CC(C(O)CO)OC5CC3O2)CC(C)C1O4` (centres unmarked) [halistatin 2], the GI50 (LOX IMVI; [1]) is reported as 0.501 nM, the IC (TGI) (LOX IMVI; [2]) is reported as 4.57 nM and the GI50 (LOX IMVI; [3]) is reported as 0.501 nM. It also gave a GI50 (M14; [1]) of 0.676 nM, an IC (TGI) (M14; [2]) of 5.75 nM and a GI50 (M14; [3]) of 0.676 nM. The GI50 (NCI-H522; NCl-H522, non-small cell lung cancer, read-out: Log10 GI50 (converted)) was 0.2 nM, the IC (TGI) (NCI-H522; NCl-H522, non-small cell lung cancer, read-out: Log10 TGI (converted)) was 0.55 nM and the GI50 (NCI-H522; [4]) was 0.2 nM. The GI50 (SF-295; [1]) was 0.182 nM, the IC (TGI) (SF-295; [2]) was 5.25 nM and the GI50 (SF-295; [3]) was 0.182 nM. The GI50 (NCI-H226; NCl-H226, non-small cell lung cancer, read-out: Log10 GI50 (converted)) was 0.724 nM, the IC (TGI) (NCI-H226; NCl-H226, non-small cell lung cancer, read-out: Log10 TGI (converted)) was 3.72 nM and the GI50 (NCI-H226; [4]) was 0.724 nM. For the same compound, the GI50 (XF 498; XF498, CNS cancer, read-out: Log10 GI50 (converted)) was 0.427 nM, the IC (TGI) (XF 498; XF498, CNS cancer, read-out: Log10 TGI (converted)) was 4.47 nM and the GI50 (XF 498; XF498, XF 498, CNS cancer, read-out: averaged negative log10 GI50 (converted)) was 0.427 nM. For the same compound, the GI50 (NCI-H23; NCl-H23, non-small cell lung cancer, read-out: Log10 GI50 (converted)) was 0.661 nM, the IC (TGI) (NCI-H23; NCl-H23, non-small cell lung cancer, read-out: Log10 TGI (converted)) was 6.76 nM and the GI50 (NCI-H23; [4]) was 0.661 nM. The GI50 (SF-268; [1]) was 1.82 nM, the IC (TGI) (SF-268; [2]) was 10 nM and the GI50 (SF-268; [3]) was 1.82 nM. For the same compound, the GI50 (A549/ATCC; [1]) was 1.82 nM, the IC (TGI) (A549/ATCC; [2]) was 10 nM and the GI50 (A549/ATCC; [3]) was 1.82 nM. For the same compound, the GI50 (EKVX; [1]) was 4.07 nM, the IC (TGI) (EKVX; [2]) was 10 nM and the GI50 (EKVX; [3]) was 4.07 nM. For the same compound, the GI50 (HOP-92; [1]) was 1.2 nM, the IC (TGI) (HOP-92; [2]) was 10 nM and the GI50 (HOP-92; [3]) was 1.2 nM. It also gave a GI50 (OVCAR-8; [1]) of 1.29 nM, an IC (TGI) (OVCAR-8; [2]) of 7.08 nM and a GI50 (OVCAR-8; [3]) of 1.29 nM. For the same compound, the GI50 (HCC-2998; [1]) was 1.29 nM, the IC (TGI) (HCC-2998; [2]) was 5.25 nM and the GI50 (HCC-2998; [3]) was 1.29 nM. The GI50 (KM 20L2; KM 20L2, colon cancer, read-out: averaged negative log10 GI50 (converted)) was 0.427 nM, the GI50 (KM 20L2; KM-20L2, printed KM2012, colon cancer, read-out: Log10 GI50 (converted)) was 0.427 nM and the IC (TGI) (KM 20L2; KM-20L2, printed KM2012, colon cancer, read-out: Log10 TGI (converted)) was 1.91 nM. It also gave a GI50 (K-562; [1]) of 0.229 nM, an IC (TGI) (K-562; [2]) of 2.57 nM and a GI50 (K-562; [3]) of 0.229 nM. It also gave a GI50 (SF-539; [1]) of 0.324 nM, an IC (TGI) (SF-539; [2]) of 1.51 nM and a GI50 (SF-539; [3]) of 0.324 nM. For the same compound, the GI50 (LXFL 529; LXFL529, non-small cell lung cancer, read-out: Log10 GI50 (converted)) was 0.447 nM, the IC (TGI) (LXFL 529; LXFL529, non-small cell lung cancer, read-out: Log10 TGI (converted)) was 10 nM and the GI50 (LXFL 529; [4]) was 0.447 nM. The GI50 (CAKI-1; CAKl-1, renal cancer, read-out: Log10 GI50 (converted)) was 1.29 nM, the IC (TGI) (CAKI-1; CAKl-1, renal cancer, read-out: Log10 TGI (converted)) was 10 nM and the GI50 (CAKI-1; renal cancer, read-out: averaged negative log10 GI50 (converted)) was 1.29 nM. The GI50 (DLD-1; [1]) was 1.2 nM, the IC (TGI) (DLD-1; [2]) was 10 nM and the GI50 (DLD-1; [3]) was 1.2 nM. For the same compound, the GI50 (M19-MEL; [1]) was 0.331 nM, the IC (TGI) (M19-MEL; [2]) was 5.01 nM and the GI50 (SK-MEL-28; [1]) was 1 nM. It also gave an IC (TGI) (SK-MEL-28; [2]) of 10 nM, a GI50 (SK-MEL-28; [3]) of 1 nM and a GI50 (OVCAR-4; [1]) of 7.76 nM. It also gave an IC (TGI) (OVCAR-4; [2]) of 10 nM, a GI50 (OVCAR-4; [3]) of 7.76 nM and a GI50 (TK-10; [1]) of 5.5 nM. For the same compound, the IC (TGI) (TK-10; [2]) was 10 nM and the GI50 (TK-10; [3]) was 5.5 nM.
